Source: PMC12073402, “A Selective MAP3K1 Inhibitor Facilitates Discovery of NPM1 as a Member of the Network” (Molecules, 2025)

Key:
Test in all cases: KiNativ kinome profiling in PANC-1 lysate
Type in all cases: binding
AurA, AurB, AurC = conditions: 5 µM; ATP Loop; GKFGNVYLAR
How it was run: (§1)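 PANC-1 lysates were incubated with 5 μM inhibitor or DMSO, then labeled with a desthiobiotin-ATP acyl-phosphate probe that biotinylates conserved kinase lysines. Tryptic peptides were streptavidin-enriched and quantified by LC-MS/MS, reported as % change in MS signal from duplicate treated and duplicate control samples.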

BARK1 = molecular target: T1, BARK1 (Homo sapiens, UniProt P25098); conditions: Lys2
T1 construct: endogenous in cells; host or cells: PANC-1 cell lysate
How it was run: as §1

CK1a = molecular target: T2, CK1a (Homo sapiens, UniProt P48729); conditions: Lys2
T2 construct: endogenous in cells; host or cells: PANC-1 cell lysate
How it was run: as §1

CSK = molecular target: T3, CSK (Homo sapiens, UniProt P41240)
T3 construct: endogenous in cells; host or cells: PANC-1 cell lysate
T3 sequence (P41240 whole entry): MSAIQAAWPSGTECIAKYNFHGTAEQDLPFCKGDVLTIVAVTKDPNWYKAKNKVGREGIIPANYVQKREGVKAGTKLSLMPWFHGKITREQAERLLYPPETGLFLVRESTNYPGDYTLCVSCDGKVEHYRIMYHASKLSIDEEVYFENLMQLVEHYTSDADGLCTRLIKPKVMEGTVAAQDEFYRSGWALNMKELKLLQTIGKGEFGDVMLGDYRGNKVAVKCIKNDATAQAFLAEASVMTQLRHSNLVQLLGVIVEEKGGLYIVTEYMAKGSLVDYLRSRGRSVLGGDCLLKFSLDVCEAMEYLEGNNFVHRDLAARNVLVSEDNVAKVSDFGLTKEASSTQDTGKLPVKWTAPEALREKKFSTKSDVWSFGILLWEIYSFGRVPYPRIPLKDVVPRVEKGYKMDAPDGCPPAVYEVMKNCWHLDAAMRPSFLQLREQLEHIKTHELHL
How it was run: as §1

CaMK2d = molecular target: T4, CaMK2d (Homo sapiens, UniProt Q13557); conditions: Lys1
T4 construct: endogenous in cells; host or cells: PANC-1 cell lysate
How it was run: as §1

EphA2 = molecular target: T5, EphA2 (Homo sapiens, UniProt P29317); conditions: ATP Loop
T5 construct: endogenous in cells; host or cells: PANC-1 lysate
How it was run: as §1

EphB4 = molecular target: T6, EphB4 (Homo sapiens, UniProt P54760); conditions: ATP Loop
T6 construct: endogenous in cells; host or cells: PANC-1 lysate
How it was run: as §1

Erk5 = molecular target: T7, Erk5 (Homo sapiens, UniProt Q13164); conditions: Lys2
T7 construct: endogenous in cells; host or cells: PANC-1 lysate
How it was run: as §1

IKKa = molecular target: T8, IKKa (Homo sapiens, UniProt O15111); conditions: Lys2
T8 construct: we opted to conduct a kinome screen (KiNativ) in PANC-1 cell lysates; endogenous in cells; host or cells: PANC-1 cell lysate
How it was run: as §1

IKKe, TBK1 = conditions: 5 µM; Lys2; DIKPGNIMR
How it was run: as §1

JAK1 domain1 = molecular target: T9, JAK1 domain1 (Homo sapiens, UniProt P23458); conditions: ATP Loop
T9 construct: we opted to conduct a kinome screen (KiNativ) in PANC-1 cell lysates; endogenous in cells; host or cells: PANC-1 cell lysate
How it was run: as §1

MAP3K4 = molecular target: T10, MAP3K4 (Homo sapiens, UniProt Q9Y6R4)
T10 construct: endogenous in cells; host or cells: PANC-1 cell lysate
T10 sequence (Q9Y6R4 whole entry): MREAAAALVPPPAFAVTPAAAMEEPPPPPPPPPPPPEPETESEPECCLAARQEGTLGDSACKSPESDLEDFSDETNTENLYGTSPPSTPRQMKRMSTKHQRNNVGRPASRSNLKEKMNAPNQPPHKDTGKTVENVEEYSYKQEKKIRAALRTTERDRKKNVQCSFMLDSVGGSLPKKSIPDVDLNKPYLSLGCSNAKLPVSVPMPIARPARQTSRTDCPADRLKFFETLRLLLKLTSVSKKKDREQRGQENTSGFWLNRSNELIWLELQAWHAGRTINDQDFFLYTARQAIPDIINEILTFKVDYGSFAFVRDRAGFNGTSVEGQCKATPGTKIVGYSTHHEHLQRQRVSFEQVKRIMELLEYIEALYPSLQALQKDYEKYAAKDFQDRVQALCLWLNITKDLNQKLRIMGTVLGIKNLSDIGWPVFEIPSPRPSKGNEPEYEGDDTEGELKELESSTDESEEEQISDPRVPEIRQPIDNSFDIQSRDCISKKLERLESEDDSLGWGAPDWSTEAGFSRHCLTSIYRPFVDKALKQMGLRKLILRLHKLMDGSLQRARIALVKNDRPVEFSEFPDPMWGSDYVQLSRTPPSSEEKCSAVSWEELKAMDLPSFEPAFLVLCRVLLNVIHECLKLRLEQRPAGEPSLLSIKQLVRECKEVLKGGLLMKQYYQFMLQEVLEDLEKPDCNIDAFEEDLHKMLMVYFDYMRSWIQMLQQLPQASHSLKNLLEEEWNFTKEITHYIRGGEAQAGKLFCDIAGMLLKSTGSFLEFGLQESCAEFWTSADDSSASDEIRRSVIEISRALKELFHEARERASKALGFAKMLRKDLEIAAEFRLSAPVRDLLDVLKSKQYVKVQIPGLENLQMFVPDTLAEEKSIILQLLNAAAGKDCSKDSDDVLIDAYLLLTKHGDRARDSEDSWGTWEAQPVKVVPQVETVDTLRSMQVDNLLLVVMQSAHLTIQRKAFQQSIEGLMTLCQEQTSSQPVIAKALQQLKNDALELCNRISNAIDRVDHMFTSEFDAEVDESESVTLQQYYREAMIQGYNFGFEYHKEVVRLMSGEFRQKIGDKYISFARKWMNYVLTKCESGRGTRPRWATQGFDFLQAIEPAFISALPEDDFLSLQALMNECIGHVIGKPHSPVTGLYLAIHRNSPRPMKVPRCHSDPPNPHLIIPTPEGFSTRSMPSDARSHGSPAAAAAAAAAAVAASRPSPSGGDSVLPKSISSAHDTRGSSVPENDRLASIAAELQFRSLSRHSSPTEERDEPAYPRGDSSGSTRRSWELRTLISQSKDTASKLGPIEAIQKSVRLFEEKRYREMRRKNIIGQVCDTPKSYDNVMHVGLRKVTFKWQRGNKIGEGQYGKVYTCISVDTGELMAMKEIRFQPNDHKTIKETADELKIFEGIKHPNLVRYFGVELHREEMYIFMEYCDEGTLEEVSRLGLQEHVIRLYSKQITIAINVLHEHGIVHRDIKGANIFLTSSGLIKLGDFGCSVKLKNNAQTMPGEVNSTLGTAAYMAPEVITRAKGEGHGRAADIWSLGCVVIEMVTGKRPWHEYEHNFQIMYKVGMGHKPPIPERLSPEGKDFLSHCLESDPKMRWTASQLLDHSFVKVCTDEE
How it was run: as §1

MARK3, MARK4 = conditions: 5 µM; Lys1; EVAIKIIDK
How it was run: as §1

MARK4 = molecular target: T11, MARK4 (Homo sapiens, UniProt Q96L34)
T11 construct: endogenous in cells; host or cells: PANC-1
T11 sequence (Q96L34 whole entry): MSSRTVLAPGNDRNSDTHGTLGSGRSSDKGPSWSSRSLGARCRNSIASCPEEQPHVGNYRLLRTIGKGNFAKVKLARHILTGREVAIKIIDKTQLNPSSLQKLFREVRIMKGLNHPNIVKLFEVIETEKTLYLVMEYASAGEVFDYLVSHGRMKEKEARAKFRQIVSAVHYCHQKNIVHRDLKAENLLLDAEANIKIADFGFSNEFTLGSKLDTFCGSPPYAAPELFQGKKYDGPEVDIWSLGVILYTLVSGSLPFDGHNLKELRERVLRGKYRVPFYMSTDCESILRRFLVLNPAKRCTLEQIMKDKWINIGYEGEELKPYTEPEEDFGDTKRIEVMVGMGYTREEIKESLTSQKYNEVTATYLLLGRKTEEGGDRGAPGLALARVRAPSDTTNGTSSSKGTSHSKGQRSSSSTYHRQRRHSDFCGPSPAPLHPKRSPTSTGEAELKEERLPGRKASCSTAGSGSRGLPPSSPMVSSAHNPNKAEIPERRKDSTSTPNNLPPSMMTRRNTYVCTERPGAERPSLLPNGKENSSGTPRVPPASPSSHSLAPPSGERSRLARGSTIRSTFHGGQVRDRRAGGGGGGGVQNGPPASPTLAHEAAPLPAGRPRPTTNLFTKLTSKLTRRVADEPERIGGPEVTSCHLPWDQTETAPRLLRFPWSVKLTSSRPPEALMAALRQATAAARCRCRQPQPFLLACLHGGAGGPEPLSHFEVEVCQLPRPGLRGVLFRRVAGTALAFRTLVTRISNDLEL
How it was run: as §1

MLK4 = molecular target: T12, MLK4 (Homo sapiens, UniProt Q5TCX8); conditions: Lys2
T12 construct: endogenous in cells; host or cells: PANC-1
How it was run: as §1

MST2 = molecular target: T13, MST2 (Homo sapiens, UniProt Q13188); conditions: Lys1
T13 construct: endogenous in cells; host or cells: PANC-1
T13 sequence (Q13188 whole entry): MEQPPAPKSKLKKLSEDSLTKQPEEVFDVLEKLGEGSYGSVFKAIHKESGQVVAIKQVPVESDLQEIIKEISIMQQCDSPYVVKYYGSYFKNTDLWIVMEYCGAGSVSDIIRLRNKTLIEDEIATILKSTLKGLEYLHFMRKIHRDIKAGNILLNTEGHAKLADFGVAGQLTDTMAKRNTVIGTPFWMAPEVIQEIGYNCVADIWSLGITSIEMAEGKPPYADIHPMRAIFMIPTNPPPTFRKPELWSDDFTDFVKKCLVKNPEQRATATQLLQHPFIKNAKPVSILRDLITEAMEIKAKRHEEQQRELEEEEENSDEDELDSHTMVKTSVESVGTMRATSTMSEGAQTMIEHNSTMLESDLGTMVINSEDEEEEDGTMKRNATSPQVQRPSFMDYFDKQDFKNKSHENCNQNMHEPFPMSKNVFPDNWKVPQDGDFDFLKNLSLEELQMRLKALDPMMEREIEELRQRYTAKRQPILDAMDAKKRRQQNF
How it was run: as §1

NDR1, NDR2 = conditions: 5 µM; ATP Loop; LSDFGLCTGLKK
How it was run: as §1

PIP4K2B = molecular target: T14, PIP4K2B (Homo sapiens, UniProt P78356); conditions: ATP
T14 construct: endogenous in cells; host or cells: PANC-1 cell lysate
How it was run: as §1

PIP5K3 = molecular target: T15, PIP5K3 (Homo sapiens, UniProt Q9Y2I7); conditions: ATP
T15 construct: endogenous in cells; host or cells: PANC-1 cell lysate
How it was run: as §1

PKCa, PKCb = conditions: 5 µM; Lys2; DLKLDNVMLDSEGHIK
How it was run: as §1

SBK = molecular target: T16, SBK (Homo sapiens, UniProt Q52WX2); conditions: Lys2
T16 construct: endogenous in cells; host or cells: PANC-1 cell lysate
T16 sequence (Q52WX2 whole entry): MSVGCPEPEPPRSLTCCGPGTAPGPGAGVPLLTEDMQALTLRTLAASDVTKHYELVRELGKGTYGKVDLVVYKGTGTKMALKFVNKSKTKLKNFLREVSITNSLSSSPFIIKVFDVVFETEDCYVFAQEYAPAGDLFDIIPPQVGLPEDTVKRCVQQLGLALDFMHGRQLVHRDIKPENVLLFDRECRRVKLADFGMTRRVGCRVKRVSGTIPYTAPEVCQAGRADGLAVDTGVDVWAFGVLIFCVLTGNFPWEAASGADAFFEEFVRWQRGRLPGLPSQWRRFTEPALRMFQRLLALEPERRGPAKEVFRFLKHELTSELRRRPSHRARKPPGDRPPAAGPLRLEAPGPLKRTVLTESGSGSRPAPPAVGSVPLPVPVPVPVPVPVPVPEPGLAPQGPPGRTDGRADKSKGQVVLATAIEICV
How it was run: as §1

SLK = molecular target: T17, SLK (Homo sapiens, UniProt Q9H2G2)
T17 construct: endogenous in cells; host or cells: PANC-1 cell lysate
T17 sequence (Q9H2G2 whole entry): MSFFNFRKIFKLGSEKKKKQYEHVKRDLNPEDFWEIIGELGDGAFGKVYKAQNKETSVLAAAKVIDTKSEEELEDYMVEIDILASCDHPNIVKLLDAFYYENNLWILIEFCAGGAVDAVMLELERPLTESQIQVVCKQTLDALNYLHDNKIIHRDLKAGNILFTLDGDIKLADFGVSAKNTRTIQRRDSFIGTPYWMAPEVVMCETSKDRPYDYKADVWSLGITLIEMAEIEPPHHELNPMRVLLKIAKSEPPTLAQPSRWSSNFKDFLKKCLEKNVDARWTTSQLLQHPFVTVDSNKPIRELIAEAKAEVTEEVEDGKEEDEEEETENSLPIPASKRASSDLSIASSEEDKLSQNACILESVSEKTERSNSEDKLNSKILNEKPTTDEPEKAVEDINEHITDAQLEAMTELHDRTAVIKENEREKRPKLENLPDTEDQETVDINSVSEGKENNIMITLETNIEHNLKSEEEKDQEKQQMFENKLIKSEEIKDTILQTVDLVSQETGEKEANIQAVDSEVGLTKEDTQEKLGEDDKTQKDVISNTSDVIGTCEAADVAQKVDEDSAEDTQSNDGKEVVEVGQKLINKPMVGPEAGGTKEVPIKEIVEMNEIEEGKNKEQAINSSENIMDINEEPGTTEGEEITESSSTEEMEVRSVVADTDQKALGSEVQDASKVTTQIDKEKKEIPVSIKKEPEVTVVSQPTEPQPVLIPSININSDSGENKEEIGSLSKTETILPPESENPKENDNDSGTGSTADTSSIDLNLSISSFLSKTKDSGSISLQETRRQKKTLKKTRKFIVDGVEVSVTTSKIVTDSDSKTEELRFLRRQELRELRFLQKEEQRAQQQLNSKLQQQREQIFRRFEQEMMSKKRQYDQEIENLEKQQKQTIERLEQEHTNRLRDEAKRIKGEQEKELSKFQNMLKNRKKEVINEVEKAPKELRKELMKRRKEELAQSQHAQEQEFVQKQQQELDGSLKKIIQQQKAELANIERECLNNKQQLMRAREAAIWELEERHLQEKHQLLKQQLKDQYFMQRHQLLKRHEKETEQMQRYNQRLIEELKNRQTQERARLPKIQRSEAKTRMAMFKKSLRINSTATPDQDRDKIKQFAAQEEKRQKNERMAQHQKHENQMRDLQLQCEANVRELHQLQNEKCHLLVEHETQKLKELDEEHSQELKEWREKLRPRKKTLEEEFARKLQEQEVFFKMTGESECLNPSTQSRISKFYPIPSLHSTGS
How it was run: as §1

Wee1 = molecular target: T18, Wee1 (Homo sapiens, UniProt P30291); conditions: Lys2
T18 construct: endogenous in cells; host or cells: PANC-1 cell lysate
How it was run: as §1

ZC2/TNIK = molecular target: T19, ZC2/TNIK (Homo sapiens, UniProt Q9UKE5); conditions: Lys1
T19 construct: endogenous in cells; host or cells: PANC-1 cell lysate
How it was run: as §1

eEF2K = molecular target: T20, eEF2K (Homo sapiens, UniProt O00418); conditions: ATP
T20 construct: endogenous in cells; host or cells: PANC-1 lysate
How it was run: as §1

p38b = molecular target: T21, p38b (Homo sapiens, UniProt Q15759); conditions: Other
T21 construct: endogenous in cells; host or cells: PANC-1 cell lysate
How it was run: as §1

p70S6Kb = molecular target: T22, p70S6Kb (Homo sapiens, UniProt Q9UBS0); conditions: Lys2
T22 construct: endogenous in cells; host or cells: PANC-1 cell lysate
How it was run: as §1

## Cn1cc(-c2cnc3ccc(NC(=O)Nc4ccc(F)c(C(F)(F)F)c4)cc3n2)cn1 [51-106, 1-(4-Fluoro-3-(trifluoromethyl)phenyl)-3-(3-(1-methyl-1H-pyrazol-4-yl)quinoxalin-6-yl)urea]
AurA, AurB, AurC
  % Inhibition: NB (NB = No Binding (≤ 0))
BARK1
  inhibition at 5 µM: 2.2%
CK1a
  inhibition at 5 µM: 11.1%
CSK; 5 µM, ATP Loop, VSDFGLTKEASSTQDTGKLPVK
  % Inhibition: NB (NB = No Binding (≤ 0))
CSK; Lys1, VAVKCIK
  inhibition at 5 µM: ≤ 0%
CaMK2d
  inhibition at 5 µM: ≤ 0%
EphA2
  inhibition at 5 µM: ≤ 0%
EphB4
  inhibition at 5 µM: 1.6%
Erk5
  inhibition at 5 µM: 11.6%
IKKa
  inhibition at 5 µM: ≤ 0%
IKKe, TBK1
  % Inhibition: 10.6%
JAK1 domain1
  inhibition at 5 µM: ≤ 0%
MAP3K4; Lys1, VYTCISVDTGELMAMKEIR
  inhibition at 5 µM: 8.6%
MAP3K4; Lys2, DIKGANIFLTSSGLIK
  inhibition at 5 µM: 7.1%
MARK3, MARK4
  % Inhibition: NB (NB = No Binding (≤ 0))
MARK4; Lys1, EVAIKIIDKTQLNPSSLQK
  inhibition at 5 µM: ≤ 0%
MARK4; Lys2, DLKAENLLLDAEANIK
  inhibition at 5 µM: 10.3%
MLK4
  inhibition at 5 µM: ≤ 0%
MST2
  inhibition at 5 µM: 0.8%
NDR1, NDR2
  % Inhibition: NB (NB = No Binding (≤ 0))
PIP4K2B
  inhibition at 5 µM: ≤ 0%
PIP5K3
  inhibition at 5 µM: ≤ 0%
PKCa, PKCb
  % Inhibition: NB (NB = No Binding (≤ 0))
SBK
  inhibition at 5 µM: ≤ 0%
SLK; Lys1, AQNKETSVLAAAKVIDTK
  inhibition at 5 µM: ≤ 0%
SLK; Lys2, DLKAGNILFTLDGDIK
  inhibition at 5 µM: 7%
Wee1
  inhibition at 5 µM: 2.2%
ZC2/TNIK
  inhibition at 5 µM: 11.2%
eEF2K
  inhibition at 5 µM: 6.3%
p38b
  inhibition at 5 µM: ≤ 0%
p70S6Kb
  inhibition at 5 µM: 22.5%
